In patent US20260356819A1, “OXOISOINDOLINYL-SUBSTITUTED […] DERIVATIVE AND USE THEREOF” (GLUETACS THERAPEUTICS (SHANGHAI) CO., LTD., priority 2023, published 2026):

Tests used:
Type in all cases: cell-based
Conditions in all cases: compounds at 50 nM and 500 nM
WEE1 = biological target: T1, WEE1 (Homo sapiens, UniProt P30291+Q96SW2); assay: Western blot degradation of WEE1 in hPBMCs (24 h)
T1 construct: The supernatant was aspirated as the extracted total cell protein; endogenous in cells; host or cells: human peripheral blood mononuclear cells (hPBMCs)
Method in brief: (§1)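 Compounds were tested at 50 nM and 500 nM on hPBMCs (1×10^6 cells/mL) for 24 h, alongside DMSO. Proteins were detected by Western blot after denaturation at 95 °C; remaining protein computed from normalised band grayscale.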

IKZF1 = biological target: T2, IKZF1 (Homo sapiens, UniProt Q13422+Q96SW2); assay: Western blot degradation of IKZF1 in hPBMCs (24 h)
T2 construct: The supernatant was aspirated as the extracted total cell protein; endogenous in cells; host or cells: human peripheral blood mononuclear cells (hPBMCs)
Method in brief: as §1

IKZF2 = biological target: T3, IKZF2 (Homo sapiens, UniProt Q96SW2+Q9UKS7); assay: Western blot degradation of IKZF2 in hPBMCs (24 h)
T3 construct: The supernatant was aspirated as the extracted total cell protein; endogenous in cells; host or cells: human peripheral blood mononuclear cells (hPBMCs)
Method in brief: as §1

IKZF3 = biological target: T4, IKZF3 (Homo sapiens, UniProt Q96SW2+Q9UKT9); assay: Western blot degradation of IKZF3 in hPBMCs (24 h)
T4 construct: The supernatant was aspirated as the extracted total cell protein; endogenous in cells; host or cells: human peripheral blood mononuclear cells (hPBMCs)
Method in brief: as §1

CK1α = biological target: T5, CK1α (Homo sapiens, UniProt P48729+Q96SW2); assay: Western blot degradation of CK1α in hPBMCs (24 h)
T5 construct: The supernatant was aspirated as the extracted total cell protein; endogenous in cells; host or cells: human peripheral blood mononuclear cells (hPBMCs)
Method in brief: as §1

GSPT1 = biological target: T6, GSPT1 (Homo sapiens, UniProt P15170+Q96SW2); assay: Western blot degradation of GSPT1 in hPBMCs (24 h)
T6 construct: The supernatant was aspirated as the extracted total cell protein; endogenous in cells; host or cells: human peripheral blood mononuclear cells (hPBMCs)
Method in brief: as §1

T4 sequence (Q9UKT9 whole entry): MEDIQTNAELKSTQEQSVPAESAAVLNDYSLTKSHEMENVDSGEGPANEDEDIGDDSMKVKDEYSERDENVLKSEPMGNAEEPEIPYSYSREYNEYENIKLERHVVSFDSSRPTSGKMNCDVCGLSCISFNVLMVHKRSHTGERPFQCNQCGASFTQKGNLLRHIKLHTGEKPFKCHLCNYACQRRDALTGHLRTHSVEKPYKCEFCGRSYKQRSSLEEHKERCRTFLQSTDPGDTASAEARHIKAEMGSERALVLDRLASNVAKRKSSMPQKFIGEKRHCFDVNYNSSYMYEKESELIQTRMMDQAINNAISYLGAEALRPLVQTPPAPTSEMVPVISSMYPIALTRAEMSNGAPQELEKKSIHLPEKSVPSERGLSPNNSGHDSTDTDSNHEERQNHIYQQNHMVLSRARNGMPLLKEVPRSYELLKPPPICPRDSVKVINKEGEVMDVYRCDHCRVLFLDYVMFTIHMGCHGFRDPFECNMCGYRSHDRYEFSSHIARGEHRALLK
T4 sequence (Q96SW2 whole entry): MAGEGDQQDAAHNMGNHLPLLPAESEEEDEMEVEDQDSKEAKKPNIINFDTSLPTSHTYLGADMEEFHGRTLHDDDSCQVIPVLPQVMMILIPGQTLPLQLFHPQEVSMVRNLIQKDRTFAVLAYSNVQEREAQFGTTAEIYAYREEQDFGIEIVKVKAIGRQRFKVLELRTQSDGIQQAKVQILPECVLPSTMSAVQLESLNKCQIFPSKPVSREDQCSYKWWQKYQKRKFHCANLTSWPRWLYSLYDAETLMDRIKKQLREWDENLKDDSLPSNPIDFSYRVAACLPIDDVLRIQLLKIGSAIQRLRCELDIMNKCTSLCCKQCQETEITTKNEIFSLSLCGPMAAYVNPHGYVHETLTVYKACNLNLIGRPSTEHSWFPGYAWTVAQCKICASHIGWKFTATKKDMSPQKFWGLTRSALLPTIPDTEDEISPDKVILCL
T4 sequence (Q16531 whole entry partner): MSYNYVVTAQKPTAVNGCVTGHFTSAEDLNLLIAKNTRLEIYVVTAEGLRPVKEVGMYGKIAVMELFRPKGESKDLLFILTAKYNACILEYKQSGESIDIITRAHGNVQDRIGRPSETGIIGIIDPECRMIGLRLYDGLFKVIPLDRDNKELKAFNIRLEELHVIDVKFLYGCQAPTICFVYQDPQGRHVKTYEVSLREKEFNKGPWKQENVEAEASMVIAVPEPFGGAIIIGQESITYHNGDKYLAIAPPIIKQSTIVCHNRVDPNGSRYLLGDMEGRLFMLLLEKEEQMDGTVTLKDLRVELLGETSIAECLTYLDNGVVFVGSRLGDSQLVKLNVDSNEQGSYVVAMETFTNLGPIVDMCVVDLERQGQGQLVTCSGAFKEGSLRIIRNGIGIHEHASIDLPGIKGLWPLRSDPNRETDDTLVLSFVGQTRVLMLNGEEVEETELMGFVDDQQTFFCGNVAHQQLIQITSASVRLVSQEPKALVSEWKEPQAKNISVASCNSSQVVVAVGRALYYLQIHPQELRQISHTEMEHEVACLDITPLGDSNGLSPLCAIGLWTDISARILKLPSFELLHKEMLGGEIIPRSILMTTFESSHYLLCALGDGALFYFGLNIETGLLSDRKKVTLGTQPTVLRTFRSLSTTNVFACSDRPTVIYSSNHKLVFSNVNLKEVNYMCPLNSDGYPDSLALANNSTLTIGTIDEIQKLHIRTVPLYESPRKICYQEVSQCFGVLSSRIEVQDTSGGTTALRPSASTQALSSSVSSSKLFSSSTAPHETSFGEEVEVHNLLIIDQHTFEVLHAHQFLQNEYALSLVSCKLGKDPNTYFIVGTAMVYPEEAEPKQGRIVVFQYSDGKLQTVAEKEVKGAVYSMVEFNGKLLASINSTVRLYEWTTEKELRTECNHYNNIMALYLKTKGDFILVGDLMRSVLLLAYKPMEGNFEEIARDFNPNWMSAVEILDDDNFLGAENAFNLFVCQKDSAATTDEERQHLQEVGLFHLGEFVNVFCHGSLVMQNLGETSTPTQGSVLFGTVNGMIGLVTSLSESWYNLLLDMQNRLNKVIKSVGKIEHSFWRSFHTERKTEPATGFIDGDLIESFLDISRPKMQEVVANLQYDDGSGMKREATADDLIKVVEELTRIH
T2 sequence (Q13422 whole entry): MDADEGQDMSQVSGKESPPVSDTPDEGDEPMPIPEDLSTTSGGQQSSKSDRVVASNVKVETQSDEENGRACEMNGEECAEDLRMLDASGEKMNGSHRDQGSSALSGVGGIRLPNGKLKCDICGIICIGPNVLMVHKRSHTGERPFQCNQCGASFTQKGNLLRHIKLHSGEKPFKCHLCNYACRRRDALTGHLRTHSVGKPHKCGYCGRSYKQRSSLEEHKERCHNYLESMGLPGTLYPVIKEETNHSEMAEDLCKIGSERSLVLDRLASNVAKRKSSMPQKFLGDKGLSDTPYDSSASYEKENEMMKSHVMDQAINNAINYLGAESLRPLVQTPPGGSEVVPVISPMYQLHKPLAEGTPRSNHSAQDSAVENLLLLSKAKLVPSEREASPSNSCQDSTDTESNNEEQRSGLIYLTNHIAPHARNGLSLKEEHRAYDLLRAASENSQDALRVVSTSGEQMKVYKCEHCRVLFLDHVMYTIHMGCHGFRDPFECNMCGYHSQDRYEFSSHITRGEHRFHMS
T2 sequence (Q96SW2 whole entry): as the sequence (Q96SW2 whole entry) above
T2 sequence (Q16531 whole entry partner): as the sequence (Q16531 whole entry partner) above
T3 sequence (Q9UKS7 whole entry): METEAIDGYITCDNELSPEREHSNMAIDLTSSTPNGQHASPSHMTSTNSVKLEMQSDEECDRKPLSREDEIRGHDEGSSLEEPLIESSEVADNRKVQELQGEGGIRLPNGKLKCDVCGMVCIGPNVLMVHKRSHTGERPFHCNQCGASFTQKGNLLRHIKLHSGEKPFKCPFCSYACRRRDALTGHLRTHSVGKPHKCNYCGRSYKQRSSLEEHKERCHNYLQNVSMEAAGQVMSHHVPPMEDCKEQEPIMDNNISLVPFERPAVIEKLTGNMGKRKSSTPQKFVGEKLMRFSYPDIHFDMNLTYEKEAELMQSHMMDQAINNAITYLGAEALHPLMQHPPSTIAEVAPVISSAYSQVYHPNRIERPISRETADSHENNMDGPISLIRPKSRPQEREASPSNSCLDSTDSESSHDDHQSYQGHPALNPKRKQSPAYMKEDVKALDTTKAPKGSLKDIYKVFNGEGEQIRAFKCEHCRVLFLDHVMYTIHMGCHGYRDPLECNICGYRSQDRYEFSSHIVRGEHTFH
T3 sequence (Q96SW2 whole entry): as the sequence (Q96SW2 whole entry) above
T3 sequence (Q16531 whole entry partner): as the sequence (Q16531 whole entry partner) above
T6 sequence (P15170 whole entry): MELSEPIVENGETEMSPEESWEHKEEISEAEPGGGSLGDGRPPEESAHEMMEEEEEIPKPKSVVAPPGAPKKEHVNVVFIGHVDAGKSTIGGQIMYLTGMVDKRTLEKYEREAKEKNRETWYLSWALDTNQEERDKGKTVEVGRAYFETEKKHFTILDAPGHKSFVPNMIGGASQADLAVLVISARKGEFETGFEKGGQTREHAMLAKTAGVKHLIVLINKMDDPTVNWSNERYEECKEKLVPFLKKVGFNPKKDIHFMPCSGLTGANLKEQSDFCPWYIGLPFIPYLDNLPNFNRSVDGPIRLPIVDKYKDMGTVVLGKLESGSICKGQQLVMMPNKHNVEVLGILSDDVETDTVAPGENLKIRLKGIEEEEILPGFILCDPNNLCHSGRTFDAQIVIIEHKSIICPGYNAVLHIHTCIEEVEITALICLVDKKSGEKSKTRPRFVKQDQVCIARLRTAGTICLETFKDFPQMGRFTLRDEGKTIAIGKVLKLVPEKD
T6 sequence (Q96SW2 whole entry): as the sequence (Q96SW2 whole entry) above
T6 sequence (Q16531 whole entry partner): as the sequence (Q16531 whole entry partner) above
T5 sequence (P48729 whole entry): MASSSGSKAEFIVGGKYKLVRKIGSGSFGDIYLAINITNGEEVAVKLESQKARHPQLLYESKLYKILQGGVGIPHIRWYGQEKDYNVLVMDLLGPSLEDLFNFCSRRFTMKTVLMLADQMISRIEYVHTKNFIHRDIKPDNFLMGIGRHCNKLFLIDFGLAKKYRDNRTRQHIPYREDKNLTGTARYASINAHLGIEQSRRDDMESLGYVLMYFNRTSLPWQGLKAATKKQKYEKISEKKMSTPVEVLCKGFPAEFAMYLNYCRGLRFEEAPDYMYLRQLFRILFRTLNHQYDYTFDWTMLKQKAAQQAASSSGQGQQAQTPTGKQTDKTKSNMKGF
T5 sequence (Q96SW2 whole entry): as the sequence (Q96SW2 whole entry) above
T5 sequence (Q16531 whole entry partner): as the sequence (Q16531 whole entry partner) above

## O=C1CCN(N2C(=O)c3ccc(CNC45CC6CC(CC(O)(C6)C4)C5)cc3C2=O)C(=O)N1 [GT-07786, 2-(2,4-dioxotetrahydropyrimidin-1(2H)-yl)-5-((((1r,3s,5R,7S)-3-hydroxyadamantan-1-yl)amino)methyl)isoindoline-1,3-dione]
WEE1
  WEE1 substrate protein remaining %: B (80%< substrate protein remaining % ≤100%)
IKZF1
  IKZF1 substrate protein remaining %: B (80%< substrate protein remaining % ≤100%)
IKZF2
  IKZF2 substrate protein remaining %: B (80%< substrate protein remaining % ≤100%)
IKZF3
  IKZF3 substrate protein remaining %: B (80%< substrate protein remaining % ≤100%)
CK1α
  CK1α substrate protein remaining %: B (80%< substrate protein remaining % ≤100%)
GSPT1
  GSPT1 substrate protein remaining %: A (0% ≤ substrate protein remaining % ≤80%)

## NCc1ccc2c(c1)C(=O)N(N1CCC(=O)NC1=O)C2=O [GT-07968, 5-(aminomethyl)-2-(2,4-dioxotetrahydropyrimidin-1(2H)-yl)isoindoline-1,3-dione]
WEE1
  WEE1 substrate protein remaining %: A (0% ≤ substrate protein remaining % ≤80%)
IKZF1
  IKZF1 substrate protein remaining %: A (0% ≤ substrate protein remaining % ≤80%)
IKZF2
  IKZF2 substrate protein remaining %: A (0% ≤ substrate protein remaining % ≤80%)
IKZF3
  IKZF3 substrate protein remaining %: A (0% ≤ substrate protein remaining % ≤80%)
CK1α
  CK1α substrate protein remaining %: A (0% ≤ substrate protein remaining % ≤80%)
GSPT1
  GSPT1 substrate protein remaining %: B (80%< substrate protein remaining % ≤100%)

## O=C1CCN(N2Cc3cc(CN4CC=C(c5cccc(Cl)c5Cl)CC4)ccc3C2=O)C(=O)N1 [GT-08054, 1-(5-((4-(2,3-dichlorophenyl)-3,6-dihydropyridin-1(2H)-yl)methyl)-1-oxoisoindolin-2-yl)dihydropyrimidine-2,4(1H,3H)-dione]
WEE1
  WEE1 substrate protein remaining %: A (0% ≤ substrate protein remaining % ≤80%)
IKZF1
  IKZF1 substrate protein remaining %: A (0% ≤ substrate protein remaining % ≤80%)
IKZF2
  IKZF2 substrate protein remaining %: A (0% ≤ substrate protein remaining % ≤80%)
IKZF3
  IKZF3 substrate protein remaining %: A (0% ≤ substrate protein remaining % ≤80%)
CK1α
  CK1α substrate protein remaining %: A (0% ≤ substrate protein remaining % ≤80%)
GSPT1
  GSPT1 substrate protein remaining %: A (0% ≤ substrate protein remaining % ≤80%)

## O=C1CCN(N2Cc3cc(CN4CC=C(c5cccc(F)c5Cl)CC4)ccc3C2=O)C(=O)N1 [GT-08055, 1-(5-((4-(2-chloro-3-fluorophenyl)-3,6-dihydropyridin-1(2H)-yl)methyl)-1-oxoisoindolin-2-yl)dihydropyrimidine-2,4(1H,3H)-dione]
WEE1
  WEE1 substrate protein remaining %: A (0% ≤ substrate protein remaining % ≤80%)
IKZF1
  IKZF1 substrate protein remaining %: A (0% ≤ substrate protein remaining % ≤80%)
IKZF2
  IKZF2 substrate protein remaining %: A (0% ≤ substrate protein remaining % ≤80%)
IKZF3
  IKZF3 substrate protein remaining %: A (0% ≤ substrate protein remaining % ≤80%)
CK1α
  CK1α substrate protein remaining %: A (0% ≤ substrate protein remaining % ≤80%)
GSPT1
  GSPT1 substrate protein remaining %: A (0% ≤ substrate protein remaining % ≤80%)

## O=C1CCN(N2Cc3cc(CN4CCN(c5ncnc6sccc56)CC4)ccc3C2=O)C(=O)N1 [GT-08057, 1-(1-oxo-5-((4-(thieno[2,3-d]pyrimidin-4-yl)piperazin-1-yl)methyl)isoindolin-2-yl)dihydropyrimidine-2,4(1H,3H)-dione]
WEE1
  WEE1 substrate protein remaining %: B (80%< substrate protein remaining % ≤100%)
IKZF1
  IKZF1 substrate protein remaining %: A (0% ≤ substrate protein remaining % ≤80%)
IKZF2
  IKZF2 substrate protein remaining %: B (80%< substrate protein remaining % ≤100%)
IKZF3
  IKZF3 substrate protein remaining %: B (80%< substrate protein remaining % ≤100%)
CK1α
  CK1α substrate protein remaining %: B (80%< substrate protein remaining % ≤100%)
GSPT1
  GSPT1 substrate protein remaining %: A (0% ≤ substrate protein remaining % ≤80%)

## Cc1csc2ncnc(N3CCN(Cc4ccc5c(c4)CN(N4CCC(=O)NC4=O)C5=O)CC3)c12 [GT-08058, 1-(5-((4-(5-methylthieno[2,3-d]pyrimidin-4-yl)piperazin-1-yl)methyl)-1-oxoisoindolin-2-yl)dihydropyrimidine-2,4(1H,3H)-dione]
WEE1
  WEE1 substrate protein remaining %: B (80%< substrate protein remaining % ≤100%)
IKZF1
  IKZF1 substrate protein remaining %: A (0% ≤ substrate protein remaining % ≤80%)
IKZF2
  IKZF2 substrate protein remaining %: B (80%< substrate protein remaining % ≤100%)
IKZF3
  IKZF3 substrate protein remaining %: B (80%< substrate protein remaining % ≤100%)
CK1α
  CK1α substrate protein remaining %: B (80%< substrate protein remaining % ≤100%)
GSPT1
  GSPT1 substrate protein remaining %: B (80%< substrate protein remaining % ≤100%)

## Cc1cc2c(N3CCN(Cc4ccc5c(c4)CN(N4CCC(=O)NC4=O)C5=O)CC3)ncnc2s1 [GT-08059, 1-(5-((4-(6-methylthieno[2,3-d]pyrimidin-4-yl)piperazin-1-yl)methyl)-1-oxoisoindolin-2-yl)dihydropyrimidine-2,4(1H,3H)-dione]
WEE1
  WEE1 substrate protein remaining %: B (80%< substrate protein remaining % ≤100%)
IKZF1
  IKZF1 substrate protein remaining %: B (80%< substrate protein remaining % ≤100%)
IKZF2
  IKZF2 substrate protein remaining %: B (80%< substrate protein remaining % ≤100%)
IKZF3
  IKZF3 substrate protein remaining %: A (0% ≤ substrate protein remaining % ≤80%)
CK1α
  CK1α substrate protein remaining %: B (80%< substrate protein remaining % ≤100%)
GSPT1
  GSPT1 substrate protein remaining %: B (80%< substrate protein remaining % ≤100%)

## CC(C)c1cc2c(N3CCN(Cc4ccc5c(c4)CN(N4CCC(=O)NC4=O)C5=O)CC3)ncnc2s1 [GT-08060, 1-(5-((4-(6-isopropylthieno[2,3-d]pyrimidin-4-yl)piperazin-1-yl)methyl)-1-oxoisoindolin-2-yl)dihydropyrimidine-2,4(1H,3H)-dione]
WEE1
  WEE1 substrate protein remaining %: B (80%< substrate protein remaining % ≤100%)
IKZF1
  IKZF1 substrate protein remaining %: B (80%< substrate protein remaining % ≤100%)
IKZF2
  IKZF2 substrate protein remaining %: A (0% ≤ substrate protein remaining % ≤80%)
IKZF3
  IKZF3 substrate protein remaining %: A (0% ≤ substrate protein remaining % ≤80%)
CK1α
  CK1α substrate protein remaining %: B (80%< substrate protein remaining % ≤100%)
GSPT1
  GSPT1 substrate protein remaining %: B (80%< substrate protein remaining % ≤100%)

## Cc1sc2ncnc(N3CCN(Cc4ccc5c(c4)CN(N4CCC(=O)NC4=O)C5=O)CC3)c2c1C [GT-08061, 1-(5-((4-(5,6-dimethylthieno[2,3-d]pyrimidin-4-yl)piperazin-1-yl)methyl)-1-oxoisoindolin-2-yl)dihydropyrimidine-2,4(1H,3H)-dione]
WEE1
  WEE1 substrate protein remaining %: B (80%< substrate protein remaining % ≤100%)
IKZF1
  IKZF1 substrate protein remaining %: B (80%< substrate protein remaining % ≤100%)
IKZF2
  IKZF2 substrate protein remaining %: A (0% ≤ substrate protein remaining % ≤80%)
IKZF3
  IKZF3 substrate protein remaining %: A (0% ≤ substrate protein remaining % ≤80%)
CK1α
  CK1α substrate protein remaining %: B (80%< substrate protein remaining % ≤100%)
GSPT1
  GSPT1 substrate protein remaining %: B (80%< substrate protein remaining % ≤100%)

## Cc1sc2ncnc(N3CCCN(Cc4ccc5c(c4)CN(N4CCC(=O)NC4=O)C5=O)CC3)c2c1C [GT-08062, 1-(5-((4-(5,6-dimethylthieno[2,3-d]pyrimidin-4-yl)-1,4-diazepan-1-yl)methyl)-1-oxoisoindolin-2-yl)dihydropyrimidine-2,4(1H,3H)-dione]
WEE1
  WEE1 substrate protein remaining %: B (80%< substrate protein remaining % ≤100%)
IKZF1
  IKZF1 substrate protein remaining %: B (80%< substrate protein remaining % ≤100%)
IKZF2
  IKZF2 substrate protein remaining %: A (0% ≤ substrate protein remaining % ≤80%)
IKZF3
  IKZF3 substrate protein remaining %: A (0% ≤ substrate protein remaining % ≤80%)
CK1α
  CK1α substrate protein remaining %: B (80%< substrate protein remaining % ≤100%)
GSPT1
  GSPT1 substrate protein remaining %: B (80%< substrate protein remaining % ≤100%)

## O=C1CCN(N2Cc3cc(CN4CCN(c5ncnc6sc(Br)cc56)CC4)ccc3C2=O)C(=O)N1 [GT-08063, 1-(5-((4-(6-bromothieno[2,3-d]pyrimidin-4-yl)piperazin-1-yl)methyl)-1-oxoisoindolin-2-yl)dihydropyrimidine-2,4(1H,3H)-dione]
WEE1
  WEE1 substrate protein remaining %: B (80%< substrate protein remaining % ≤100%)
IKZF1
  IKZF1 substrate protein remaining %: B (80%< substrate protein remaining % ≤100%)
IKZF2
  IKZF2 substrate protein remaining %: A (0% ≤ substrate protein remaining % ≤80%)
IKZF3
  IKZF3 substrate protein remaining %: A (0% ≤ substrate protein remaining % ≤80%)
CK1α
  CK1α substrate protein remaining %: B (80%< substrate protein remaining % ≤100%)
GSPT1
  GSPT1 substrate protein remaining %: B (80%< substrate protein remaining % ≤100%)

## O=C1CCN(N2Cc3cc(CN4CCN(c5ncnc6sc(-c7ccccc7)cc56)CC4)ccc3C2=O)C(=O)N1 [GT-08064, 1-(1-oxo-5-((4-(6-phenylthieno[2,3-d]pyrimidin-4-yl)piperazin-1-yl)methyl)isoindolin-2-yl)dihydropyrimidine-2,4(1H,3H)-dione]
WEE1
  WEE1 substrate protein remaining %: B (80%< substrate protein remaining % ≤100%)
IKZF1
  IKZF1 substrate protein remaining %: B (80%< substrate protein remaining % ≤100%)
IKZF2
  IKZF2 substrate protein remaining %: A (0% ≤ substrate protein remaining % ≤80%)
IKZF3
  IKZF3 substrate protein remaining %: B (80%< substrate protein remaining % ≤100%)
CK1α
  CK1α substrate protein remaining %: B (80%< substrate protein remaining % ≤100%)
GSPT1
  GSPT1 substrate protein remaining %: B (80%< substrate protein remaining % ≤100%)
